{
  "source": "paper PMC10366102",
  "about": "“Dose escalation and expansion cohorts in patients with advanced breast cancer in a Phase I study of the CDK7-inhibitor samuraciclib” (Nature Communications, 2023)",
  "key": {"[1]": {"test_system": "phosphorylated RNA polymerase II (pPolII)", "test": "Flow cytometry of pPolII in lymphocytes (PBMC preparations)", "type": "in vivo, human", "details": "Module 1A, across all doses, Cycle 2 Day 1", "protocol": "(§1) Per-protocol ctDNA samples were taken in Module 1B-1 at screening, C1D1, C2D1 and on D1 of alternating cycles from Cycle 3; in Module 2A at screening, C1D1 and at either C2D1 (240 mg) or C2D15 (360 mg) for mutational analysis[24],[33], (Supplementary Information). pPolII in lymphocytes and pPolII and pCDK1/2/3 in core needle tissue samples from patients recruited to the paired biopsy cohort were evaluated for on-target pharmacodynamic analyses. […]\nwith the sponsor. All investigator sites attended the SRC so that updates on toxicity and MTD could be communicated immediately. No more than 6 participants could be recruited at a non-tolerated dose […]\nA summary of DLTs by cohort is provided in Supplementary Table 5. […]\nCells were analysed cells on a BD Fortessa X20, acquiring 100,000 events. […]\nanalysed using FlowJo (Treestar) version 10.4.2 to report the median fluorescence intensity of staining […]\nalthough not reaching statistical significance due to the low number of patients. pPolII was determined by a flow cytometry assay on samples of peripheral blood mononuclear cell (PBMC) preparations […]\nH-scores for pre-dose and on-study biopsies and summary statistics for the observed H-score when stained for pCDK1/2/3 and pPolII are shown in Supplementary Table 11. Significance was calculated using Student’s one-tailed paired t-test, where the alternative hypothesis was that on-study samples had […]"}, "pCDK1/2/3": {"test_system": "pCDK1/2/3", "test": "Immunohistochemistry H-score in paired tumor biopsies, pCDK1/2/3", "type": "in vivo, human", "protocol": "as §1\npharmacodynamic effects in tumor tissue. […]\nvariability in H-score was observed between sections. […]\nH-scores for pre-dose and on-study biopsies and summary statistics for the observed H-score when stained for pCDK1/2/3 and pPolII are shown in Supplementary Table 11. Significance was calculated using Student’s one-tailed paired t-test, where the alternative hypothesis was that on-study samples had"}, "[2]": {"set-up": "method as in ref IB", "details": "mouse; ref IB; cited from earlier work"}, "CYP1A2": {"test_system": "CYP1A2", "set-up": "method as in ref IB", "details": "human microsomes; ref IB; cited from earlier work"}, "CYP3A4": {"test_system": "CYP3A4", "set-up": "method as in ref IB", "details": "separate assay, ref IB, cited from earlier work"}, "[3]": {"test_system": "phosphorylation of RNA Pol II, CDK1 and 2", "set-up": "method as in ref IB", "details": "in vitro and in vivo, tumour and normal cells; ref IB; cited from earlier work"}},
  "note": "Read-outs that look alike come from different tables or passages of the source.",
  "data": [
    {"molecule": "CC(C)c1cnn2c(NCc3ccccc3)cc(NC[C@H]3CCNC[C@@H]3O)nc12", "note": "[samuraciclib, Samuraciclib]", "values": [
      {"measurement": "Reduction of pPolII in lymphocytes", "setting": "[1]", "value": "approximately 30%"},
      {"measurement": "pCDK1/2/3 H-Score, On study, average", "setting": "pCDK1/2/3; Average 240mg OD patients, pre-dose 169", "value": 102},
      {"measurement": "pCDK1/2/3 H-Score, On study, average", "setting": "pCDK1/2/3; Average 360mg OD patients, pre-dose 119", "value": 118},
      {"measurement": "pCDK1/2/3 H-Score, On study, average", "setting": "pCDK1/2/3; Average all patients, pre-dose 144", "value": 110},
      {"measurement": "pCDK1/2/3 H-Score, On study", "setting": "pCDK1/2/3; HR+ breast cancer, breast biopsy, 360 mg OD, pre-dose 178", "value": 112},
      {"measurement": "pCDK1/2/3 H-Score, On study", "setting": "pCDK1/2/3; HR+ breast cancer, liver biopsy, 240 mg OD, pre-dose 125", "value": 90},
      {"measurement": "pCDK1/2/3 H-Score, On study", "setting": "pCDK1/2/3; HR+ breast cancer, liver biopsy, 240 mg OD, pre-dose 234", "value": 151},
      {"measurement": "pCDK1/2/3 H-Score, On study", "setting": "pCDK1/2/3; HR+ breast cancer, liver biopsy, 360 mg OD, pre-dose 89", "value": 128},
      {"measurement": "pCDK1/2/3 H-Score, On study", "setting": "pCDK1/2/3; HR+ breast cancer, liver biopsy, 360 mg OD, pre-dose 91", "value": 113},
      {"measurement": "pCDK1/2/3 H-Score, On study", "setting": "pCDK1/2/3; Rhabdomyosarcoma, axilla biopsy, 240 mg OD, pre-dose 148", "value": 64},
      {"measurement": "Levels of pCDK1/2/3 in tumors", "setting": "pCDK1/2/3; paired biopsy cohort", "value": "showed a reduction, although this did not reach statistical significance"},
      {"measurement": "Oral bioavailability", "setting": "[2]", "value": "good oral bioavailability"},
      {"measurement": "IC50", "setting": "CYP1A2", "value": "[…]"},
      {"measurement": "IC50", "setting": "CYP3A4; midazolam as substrate", "value": "[…]"},
      {"measurement": "IC50", "setting": "CYP3A4; testosterone as substrate", "value": "[…]"},
      {"measurement": "Phosphorylation of RNA Pol II, CDK1 and 2", "setting": "[3]", "value": "inhibits the phosphorylation"}
    ]}
  ]
}
